# Test results from ChEMBL document CHEMBL4052645, “Discovery of potent and efficacious pyrrolopyridazines as dual JAK1/3 inhibitors” (Bioorg Med Chem Lett, 2017).
# Legend:
# [1] = biological target: Serine/threonine-protein kinase N1 (Homo sapiens) (UniProt Q16512); assay: Inhibition of human PKN1 (E598 to C948 residues) expressed in bacterial expression system assessed as residual activity at 50 nM by KINOMEscan assay relative to control
# [2] = biological target: Dual specificity mitogen-activated protein kinase kinase 5 (Homo sapiens) (UniProt Q13163); assay: Inhibition of human MAP2K5 (L98 to P448 residues) expressed in mammalian expression system assessed as residual activity at 50 nM by KINOMEscan assay relative to control
# [3] = biological target: Serine/threonine-protein kinase MRCK gamma (Homo sapiens) (UniProt Q6DT37); assay: Inhibition of wild-type human partial length DMPK2 (S46 to S408 residues) expressed in bacterial expression system assessed as residual activity at 50 nM by Kinomescan method relative to control
# [4] = biological target: Protein kinase C eta type (Homo sapiens) (UniProt P24723); assay: Inhibition of wild-type human partial length PKCH (S324 to P683 residues) expressed in bacterial expression system assessed as residual activity at 50 nM by Kinomescan method relative to control
# [5] = biological target: Macrophage colony-stimulating factor 1 receptor (Homo sapiens) (UniProt P07333); assay: Inhibition of wild-type human partial length FMS (I564 to S939 residues) expressed in bacterial expression system assessed as residual activity at 50 nM by Kinomescan method relative to control
# [6] = tested on: Phosphatidylinositol 4,5-bisphosphate 3-kinase catalytic subunit alpha isoform (Homo sapiens), P42336 [H1047Y]; assay: Inhibition of human partial length PIK3CA H1047Y mutant (R108 to N1068 residues) expressed in mammalian expression system assessed as residual activity at 50 nM by Kinomescan method relative to control
# [7] = biological target: Serine/threonine-protein kinase DCLK1 (Homo sapiens) (UniProt O15075); assay: Inhibition of wild-type human partial length DCAMKL1 (L270 to A662 residues) expressed in mammalian expression system assessed as residual activity at 50 nM by Kinomescan method relative to control
# [8] = biological target: Maternal embryonic leucine zipper kinase (Homo sapiens) (UniProt Q14680); assay: Inhibition of wild-type human full length MELK (M1 to V651 residues) expressed in bacterial expression system assessed as residual activity at 50 nM by Kinomescan method relative to control
# [9] = biological target: Mitogen-activated protein kinase 10 (Homo sapiens) (UniProt P53779); assay: Inhibition of wild-type human partial length JNK3 (V28 to Q422 residues) expressed in mammalian expression system assessed as residual activity at 50 nM by Kinomescan method relative to control
# [10] = biological target: Serine/threonine-protein kinase Nek11 (Homo sapiens) (UniProt Q8NG66); assay: Inhibition of wild-type human partial length NEK11 (M1 to E313 residues) expressed in mammalian expression system assessed as residual activity at 50 nM by Kinomescan method relative to control
# [11] = biological target: Serine/threonine-protein kinase 38 (Homo sapiens) (UniProt Q15208); assay: Inhibition of wild-type human partial length NDR1 (N33 to E449 residues) expressed in mammalian expression system assessed as residual activity at 50 nM by Kinomescan method relative to control
# [12] = biological target: Cyclin-dependent kinase 5 (Homo sapiens) (UniProt Q00535); assay: Inhibition of wild-type human full length CDK5 (M1 to P292 residues) expressed in bacterial expression system assessed as residual activity at 50 nM by Kinomescan method relative to control
# [13] = biological target: Atypical kinase COQ8A, mitochondrial (Homo sapiens) (UniProt Q8NI60); assay: Inhibition of wild-type human […] ADCK3 (M280 to Q647 residues) expressed in bacterial expression system assessed as residual activity at 50 nM by Kinomescan method relative to control
# [14] = biological target: Calcium/calmodulin-dependent protein kinase type 1D (Homo sapiens) (UniProt Q8IU85); assay: Inhibition of wild-type human partial length CAMK1D (M1 to K299 residues) expressed in bacterial expression system assessed as residual activity at 50 nM by Kinomescan method relative to control
# [15] = biological target: Tyrosine-protein kinase Fes/Fps (Homo sapiens) (UniProt P07332); assay: Inhibition of wild-type human partial length FES (I527 to R822 residues) expressed in bacterial expression system assessed as residual activity at 50 nM by Kinomescan method relative to control
# [16] = biological target: Tyrosine-protein kinase HCK (Homo sapiens) (UniProt P08631); assay: Inhibition of wild-type human full length HCK (M22 to P526 residues) expressed in bacterial expression system assessed as residual activity at 50 nM by Kinomescan method relative to control
# [17] = biological target: Insulin-like growth factor 1 receptor (Homo sapiens) (UniProt P08069); assay: Inhibition of wild-type human partial length IGF1R (L972 to D1294 residues) expressed in bacterial expression system assessed as residual activity at 50 nM by Kinomescan method relative to control
# [18] = biological target: Mitogen-activated protein kinase kinase kinase 5 (Homo sapiens) (UniProt Q99683); assay: Inhibition of wild-type human partial length MAP3K5 (E648 to S964 residues) expressed in bacterial expression system assessed as residual activity at 50 nM by Kinomescan method relative to control
# [19] = biological target: MAP kinase-activated protein kinase 5 (Homo sapiens) (UniProt Q8IW41); assay: Inhibition of wild-type human partial length MAPKAPK5 (M1 to D322 residues) expressed in mammalian expression system assessed as residual activity at 50 nM by Kinomescan method relative to control
# [20] = biological target: MAP kinase-interacting serine/threonine-protein kinase 2 (Homo sapiens) (UniProt Q9HBH9); assay: Inhibition of wild-type human partial length MNK2 (G63 to S388 residues) expressed in mammalian expression system assessed as residual activity at 50 nM by Kinomescan method relative to control
# [21] = tested on: Phosphatidylinositol 4,5-bisphosphate 3-kinase catalytic subunit alpha isoform (Homo sapiens), P42336 [E542K]; assay: Inhibition of human partial length PI3KCA E542K mutant (R108 to N1068 residues) expressed in mammalian expression system assessed as residual activity at 50 nM by Kinomescan method relative to control
# [22] = biological target: Serine/threonine-protein kinase pim-2 (Homo sapiens) (UniProt Q9P1W9); assay: Inhibition of wild-type human partial length PIM2 (M1 to E291 residues) expressed in bacterial expression system assessed as residual activity at 50 nM by Kinomescan method relative to control
# [23] = biological target: RAF proto-oncogene serine/threonine-protein kinase (Homo sapiens) (UniProt P04049); assay: Inhibition of wild-type human partial length RAF1 (I330 to T640 residues) expressed in bacterial expression system assessed as residual activity at 50 nM by Kinomescan method relative to control
# [24] = biological target: Proto-oncogene tyrosine-protein kinase ROS (Homo sapiens) (UniProt P08922); assay: Inhibition of wild-type human partial length ROS (A1921 to N2240 residues) expressed in bacterial expression system assessed as residual activity at 50 nM by Kinomescan method relative to control
# [25] = biological target: Serine/threonine-protein kinase ULK3 (Homo sapiens) (UniProt Q6PHR2); assay: Inhibition of wild-type human partial length ULK3 (M1 to Q290 residues) expressed in mammalian expression system assessed as residual activity at 50 nM by Kinomescan method relative to control
# Serine/threonine-protein kinase ULK3 (Homo sapiens), sequence (Q6PHR2 whole entry, the tested form may be a part): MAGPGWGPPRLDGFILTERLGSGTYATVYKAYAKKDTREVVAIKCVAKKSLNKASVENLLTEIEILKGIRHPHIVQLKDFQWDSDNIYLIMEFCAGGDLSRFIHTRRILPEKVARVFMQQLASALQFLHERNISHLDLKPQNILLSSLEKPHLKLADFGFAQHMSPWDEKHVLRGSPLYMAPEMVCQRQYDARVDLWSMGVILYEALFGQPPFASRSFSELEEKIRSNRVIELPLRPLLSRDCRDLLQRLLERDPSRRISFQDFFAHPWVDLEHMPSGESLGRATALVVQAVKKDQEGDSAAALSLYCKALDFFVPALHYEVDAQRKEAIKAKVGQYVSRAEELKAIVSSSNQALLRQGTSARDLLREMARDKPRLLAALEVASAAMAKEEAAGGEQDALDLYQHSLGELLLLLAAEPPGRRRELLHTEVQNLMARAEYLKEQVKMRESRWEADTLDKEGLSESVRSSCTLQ
# Serine/threonine-protein kinase N1 (Homo sapiens), sequence (Q16512 2-942 limits assumed): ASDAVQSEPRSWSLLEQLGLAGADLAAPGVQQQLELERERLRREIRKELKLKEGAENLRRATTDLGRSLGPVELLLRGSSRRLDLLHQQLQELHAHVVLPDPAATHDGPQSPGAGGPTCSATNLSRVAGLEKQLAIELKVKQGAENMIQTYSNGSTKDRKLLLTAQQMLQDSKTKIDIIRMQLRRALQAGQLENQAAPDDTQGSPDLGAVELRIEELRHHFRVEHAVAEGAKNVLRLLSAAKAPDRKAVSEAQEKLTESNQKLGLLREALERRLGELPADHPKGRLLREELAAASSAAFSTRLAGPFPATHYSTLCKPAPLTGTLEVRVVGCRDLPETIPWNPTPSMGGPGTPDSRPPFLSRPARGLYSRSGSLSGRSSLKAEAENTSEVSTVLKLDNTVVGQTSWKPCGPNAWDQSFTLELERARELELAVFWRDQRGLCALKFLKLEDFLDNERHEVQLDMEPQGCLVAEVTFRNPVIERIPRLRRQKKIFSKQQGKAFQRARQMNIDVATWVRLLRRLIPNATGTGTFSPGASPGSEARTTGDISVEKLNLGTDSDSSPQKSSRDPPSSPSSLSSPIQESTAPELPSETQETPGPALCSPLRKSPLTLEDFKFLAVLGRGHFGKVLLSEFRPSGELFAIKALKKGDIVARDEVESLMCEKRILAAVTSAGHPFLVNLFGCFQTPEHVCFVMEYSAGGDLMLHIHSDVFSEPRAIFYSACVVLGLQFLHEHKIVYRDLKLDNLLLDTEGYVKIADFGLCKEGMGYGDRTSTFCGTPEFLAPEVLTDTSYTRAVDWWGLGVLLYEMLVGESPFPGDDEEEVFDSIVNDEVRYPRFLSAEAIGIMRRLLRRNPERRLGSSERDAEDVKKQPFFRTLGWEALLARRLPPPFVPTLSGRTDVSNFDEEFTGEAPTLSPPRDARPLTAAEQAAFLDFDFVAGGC
# Tyrosine-protein kinase Fes/Fps (Homo sapiens), sequence (P07332 whole entry, the tested form may be a part): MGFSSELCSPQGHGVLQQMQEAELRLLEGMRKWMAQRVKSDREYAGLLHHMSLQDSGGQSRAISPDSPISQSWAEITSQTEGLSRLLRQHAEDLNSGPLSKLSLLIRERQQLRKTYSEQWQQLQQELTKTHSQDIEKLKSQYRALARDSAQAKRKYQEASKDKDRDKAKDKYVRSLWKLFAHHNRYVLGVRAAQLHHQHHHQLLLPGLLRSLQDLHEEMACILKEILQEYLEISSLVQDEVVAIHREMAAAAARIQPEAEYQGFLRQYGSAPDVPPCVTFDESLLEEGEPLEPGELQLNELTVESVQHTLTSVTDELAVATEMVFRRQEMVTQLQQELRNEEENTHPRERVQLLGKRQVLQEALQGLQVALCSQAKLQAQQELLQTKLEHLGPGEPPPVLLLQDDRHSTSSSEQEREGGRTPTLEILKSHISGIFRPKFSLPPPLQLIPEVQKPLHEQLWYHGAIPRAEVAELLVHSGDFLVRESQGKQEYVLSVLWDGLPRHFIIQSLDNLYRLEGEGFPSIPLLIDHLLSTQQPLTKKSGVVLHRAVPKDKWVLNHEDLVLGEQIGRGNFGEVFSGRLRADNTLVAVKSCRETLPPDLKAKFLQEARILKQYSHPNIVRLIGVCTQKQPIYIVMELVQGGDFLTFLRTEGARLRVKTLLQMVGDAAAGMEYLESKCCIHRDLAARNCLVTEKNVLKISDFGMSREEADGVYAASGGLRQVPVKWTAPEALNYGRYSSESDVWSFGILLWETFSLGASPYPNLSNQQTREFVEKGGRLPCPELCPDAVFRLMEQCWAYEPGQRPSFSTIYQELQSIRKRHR
# Calcium/calmodulin-dependent protein kinase type 1D (Homo sapiens), sequence (Q8IU85 whole entry, looked up, the tested form may be a part): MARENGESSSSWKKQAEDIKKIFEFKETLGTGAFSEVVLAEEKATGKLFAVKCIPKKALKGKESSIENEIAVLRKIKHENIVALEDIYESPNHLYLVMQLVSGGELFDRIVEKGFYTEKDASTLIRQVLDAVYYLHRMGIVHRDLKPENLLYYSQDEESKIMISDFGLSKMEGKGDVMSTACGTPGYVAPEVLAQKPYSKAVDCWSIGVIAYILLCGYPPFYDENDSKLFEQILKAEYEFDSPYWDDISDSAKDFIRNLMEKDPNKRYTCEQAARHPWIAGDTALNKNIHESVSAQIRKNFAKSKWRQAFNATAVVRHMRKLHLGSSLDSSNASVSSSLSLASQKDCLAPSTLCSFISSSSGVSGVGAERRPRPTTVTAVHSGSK
# Maternal embryonic leucine zipper kinase (Homo sapiens), sequence (Q14680 whole entry, looked up, the tested form may be a part): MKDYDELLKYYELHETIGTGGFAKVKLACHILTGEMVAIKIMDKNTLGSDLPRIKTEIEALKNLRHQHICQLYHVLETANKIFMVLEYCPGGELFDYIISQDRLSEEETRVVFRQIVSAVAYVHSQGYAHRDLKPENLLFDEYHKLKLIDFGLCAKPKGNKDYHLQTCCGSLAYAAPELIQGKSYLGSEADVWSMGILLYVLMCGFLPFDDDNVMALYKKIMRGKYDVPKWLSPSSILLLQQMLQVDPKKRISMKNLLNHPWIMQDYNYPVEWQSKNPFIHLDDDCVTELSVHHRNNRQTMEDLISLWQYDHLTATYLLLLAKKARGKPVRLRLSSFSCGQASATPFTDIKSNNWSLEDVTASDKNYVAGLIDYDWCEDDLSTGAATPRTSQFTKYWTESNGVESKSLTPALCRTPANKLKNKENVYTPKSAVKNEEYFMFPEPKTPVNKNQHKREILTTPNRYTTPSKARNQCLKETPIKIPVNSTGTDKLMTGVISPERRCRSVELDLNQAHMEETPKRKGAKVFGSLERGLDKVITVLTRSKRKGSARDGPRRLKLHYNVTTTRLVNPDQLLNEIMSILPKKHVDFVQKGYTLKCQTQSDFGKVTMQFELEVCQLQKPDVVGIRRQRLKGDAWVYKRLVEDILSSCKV
# Dual specificity mitogen-activated protein kinase kinase 5 (Homo sapiens), sequence (Q13163 whole entry, the tested form may be a part): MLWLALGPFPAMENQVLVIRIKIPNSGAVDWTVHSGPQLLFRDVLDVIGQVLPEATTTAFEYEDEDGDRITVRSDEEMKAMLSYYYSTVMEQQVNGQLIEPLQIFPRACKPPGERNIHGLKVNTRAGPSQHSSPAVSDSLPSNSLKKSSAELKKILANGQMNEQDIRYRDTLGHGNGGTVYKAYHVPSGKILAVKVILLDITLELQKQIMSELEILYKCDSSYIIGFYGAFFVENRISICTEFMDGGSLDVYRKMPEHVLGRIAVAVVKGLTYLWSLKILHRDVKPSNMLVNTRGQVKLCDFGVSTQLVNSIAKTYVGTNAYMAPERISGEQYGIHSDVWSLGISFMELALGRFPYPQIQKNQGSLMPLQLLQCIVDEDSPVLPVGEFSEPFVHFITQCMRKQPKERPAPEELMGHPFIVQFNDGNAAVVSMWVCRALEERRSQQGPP
# RAF proto-oncogene serine/threonine-protein kinase (Homo sapiens), sequence (P04049 whole entry, the tested form may be a part): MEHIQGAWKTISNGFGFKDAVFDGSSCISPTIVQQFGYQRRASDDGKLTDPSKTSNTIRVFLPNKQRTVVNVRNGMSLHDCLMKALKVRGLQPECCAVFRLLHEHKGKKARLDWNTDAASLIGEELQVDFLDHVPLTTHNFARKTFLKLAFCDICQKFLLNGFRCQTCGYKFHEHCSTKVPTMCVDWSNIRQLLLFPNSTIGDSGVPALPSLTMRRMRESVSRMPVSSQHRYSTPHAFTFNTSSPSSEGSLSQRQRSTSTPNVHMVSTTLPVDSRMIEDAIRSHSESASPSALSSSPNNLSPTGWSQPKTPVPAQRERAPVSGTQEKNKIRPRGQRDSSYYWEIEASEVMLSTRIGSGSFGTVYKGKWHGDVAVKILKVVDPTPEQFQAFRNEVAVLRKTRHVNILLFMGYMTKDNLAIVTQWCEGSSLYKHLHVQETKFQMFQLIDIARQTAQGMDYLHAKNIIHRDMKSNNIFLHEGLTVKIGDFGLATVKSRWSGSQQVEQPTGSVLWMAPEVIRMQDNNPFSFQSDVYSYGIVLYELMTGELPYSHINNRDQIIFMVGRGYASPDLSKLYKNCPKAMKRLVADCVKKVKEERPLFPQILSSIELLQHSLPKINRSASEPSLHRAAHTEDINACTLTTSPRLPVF
# Serine/threonine-protein kinase 38 (Homo sapiens), sequence (Q15208 2-465 limits assumed): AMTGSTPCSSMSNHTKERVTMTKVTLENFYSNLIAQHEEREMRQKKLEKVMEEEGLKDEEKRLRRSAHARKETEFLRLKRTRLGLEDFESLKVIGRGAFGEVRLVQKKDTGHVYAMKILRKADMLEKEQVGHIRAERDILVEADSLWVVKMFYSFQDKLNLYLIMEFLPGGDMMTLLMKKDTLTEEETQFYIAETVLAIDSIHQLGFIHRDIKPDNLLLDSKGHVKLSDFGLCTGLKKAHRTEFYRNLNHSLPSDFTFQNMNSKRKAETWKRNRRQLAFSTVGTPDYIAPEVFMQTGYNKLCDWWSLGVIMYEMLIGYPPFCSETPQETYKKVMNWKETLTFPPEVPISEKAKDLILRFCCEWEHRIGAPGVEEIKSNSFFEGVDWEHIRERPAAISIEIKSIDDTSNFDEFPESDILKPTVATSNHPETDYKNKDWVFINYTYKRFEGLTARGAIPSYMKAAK
smiles,measurement,setting,value
COc1ccc(-c2cc3c(N[C@@H]4CC[C@](C)(N)C4(C)C)c(C(N)=O)cnn3c2)cn1,Activity,[1],7%
same,Activity,[2],34%
same,Activity,[3],97%
same,Activity,[4],70%
same,Activity,[5],74%
same,Activity,[6],100%
same,Activity,[7],99%
same,Activity,[8],79%
same,Activity,[9],100%
same,Activity,[10],99%
same,Activity,[11],99%
same,Activity,[12],92%
same,Activity,[13],76%
same,Activity,[14],100%
same,Activity,[15],98%
same,Activity,[16],100%
same,Activity,[17],100%
same,Activity,[18],100%
same,Activity,[19],100%
same,Activity,[20],95%
same,Activity,[21],100%
same,Activity,[22],100%
same,Activity,[23],100%
same,Activity,[24],100%
same,Activity,[25],100%
CC1(C)[C@H](Nc2c(C(N)=O)cnn3cc(-c4ccccc4)cc23)CC[C@]1(C)N,Activity,[1],0.3%
same,Activity,[2],5%
same,Activity,[3],37%
same,Activity,[4],49%
same,Activity,[5],57%
same,Activity,[6],66%
same,Activity,[7],67%
same,Activity,[8],79%
same,Activity,[9],87%
same,Activity,[10],87%
same,Activity,[11],92%
same,Activity,[12],94%
same,Activity,[13],100%
same,Activity,[14],100%
same,Activity,[15],100%
same,Activity,[16],100%
same,Activity,[17],100%
same,Activity,[18],100%
same,Activity,[19],100%
same,Activity,[20],100%
same,Activity,[21],100%
same,Activity,[22],100%
same,Activity,[23],100%
same,Activity,[24],100%
same,Activity,[25],100%
